Data published in PubChem BioAssay (NCI).
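Method: 48-hour compound exposure of cells in 96-well plates, five concentrations, linear interpolation of endpoints. GI50 is the concentration that inhibits growth by half. At the TGI there is no net growth.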

What was measured:
Assay in all cases: DTP human tumour cell line panel, 48 h
CCRF-CEM leukemia = tested on: CCRF-CEM leukemia
NCI-H226 lung = tested on: NCI-H226 lung
OVCAR-5 ovarian = tested on: OVCAR-5 ovarian
HCT-15 colon = tested on: HCT-15 colon
SF-268 CNS = tested on: SF-268 CNS
DU-145 prostate = tested on: DU-145 prostate
SK-MEL-5 melanoma = tested on: SK-MEL-5 melanoma
HT29 colon = tested on: HT29 colon
UO-31 renal = tested on: UO-31 renal
M14 melanoma = tested on: M14 melanoma
RXF 393 renal = tested on: RXF 393 renal
K-562 leukemia = tested on: K-562 leukemia
A549 NSCLC = tested on: A549 NSCLC
CAKI-1 renal = tested on: CAKI-1 renal
NCI-H23 lung = tested on: NCI-H23 lung
HOP-62 NSCLC = tested on: HOP-62 NSCLC
NCI/ADR-RES ovarian = tested on: NCI/ADR-RES ovarian
SK-OV-3 ovarian = tested on: SK-OV-3 ovarian
BT-549 breast = tested on: BT-549 breast
LOX IMVI melanoma = tested on: LOX IMVI melanoma
SN12C renal = tested on: SN12C renal
MOLT-4 leukemia = tested on: MOLT-4 leukemia
HCC-2998 colon = tested on: HCC-2998 colon
786-0 renal = tested on: 786-0 renal
HS 578T breast = tested on: HS 578T breast
SNB-75 CNS = tested on: SNB-75 CNS
OVCAR-3 ovarian = tested on: OVCAR-3 ovarian
OVCAR-8 ovarian = tested on: OVCAR-8 ovarian
SF-539 CNS = tested on: SF-539 CNS
NCI-H460 lung = tested on: NCI-H460 lung
OVCAR-4 ovarian = tested on: OVCAR-4 ovarian
SK-MEL-28 melanoma = tested on: SK-MEL-28 melanoma
SK-MEL-2 melanoma = tested on: SK-MEL-2 melanoma
UACC-257 melanoma = tested on: UACC-257 melanoma
SF-295 CNS = tested on: SF-295 CNS
KM12 colon = tested on: KM12 colon
EKVX NSCLC = tested on: EKVX NSCLC
U251 CNS = tested on: U251 CNS
SNB-19 CNS = tested on: SNB-19 CNS
ACHN renal = tested on: ACHN renal
MALME-3M melanoma = tested on: MALME-3M melanoma
A498 renal = tested on: A498 renal
MCF7 breast = tested on: MCF7 breast
HL-60(TB) leukemia = tested on: HL-60(TB) leukemia
RPMI-8226 leukemia = tested on: RPMI-8226 leukemia
TK-10 renal = tested on: TK-10 renal
HOP-92 NSCLC = tested on: HOP-92 NSCLC
PC-3 prostate = tested on: PC-3 prostate
COLO 205 colon = tested on: COLO 205 colon
T-47D breast = tested on: T-47D breast
MDA-MB-231 breast = tested on: MDA-MB-231 breast
UACC-62 melanoma = tested on: UACC-62 melanoma
MDA-MB-435 = tested on: MDA-MB-435
SW-620 colon = tested on: SW-620 colon
HCT-116 colon = tested on: HCT-116 colon
IGROV1 ovarian = tested on: IGROV1 ovarian

With `O=C(c1nn(-c2ccc(Cl)cc2)cc1O)n1nc(C(F)(F)F)cc1-c1ccccc1` the GI50 (CCRF-CEM leukemia) was 0.738 µM, the TGI (CCRF-CEM leukemia) was > 33.8 µM and the GI50 (NCI-H226 lung) was 2.17 µM. The TGI (NCI-H226 lung) was > 40.7 µM, the TGI (OVCAR-5 ovarian) was > 85 µM and the GI50 (HCT-15 colon) was 1.13 µM. The TGI (HCT-15 colon) was > 100 µM, the GI50 (SF-268 CNS) was 1.8 µM and the TGI (SF-268 CNS) was > 100 µM. For the same compound, the GI50 (DU-145 prostate) was 8.47 µM, the TGI (DU-145 prostate) was > 100 µM and the GI50 (SK-MEL-5 melanoma) was 2.07 µM. For the same compound, the TGI (SK-MEL-5 melanoma) was 16.7 µM, the GI50 (HT29 colon) was 4.07 µM and the TGI (HT29 colon) was > 83.8 µM. For the same compound, the GI50 (UO-31 renal) was 2.9 µM, the TGI (UO-31 renal) was > 100 µM and the GI50 (M14 melanoma) was 3.69 µM. The TGI (M14 melanoma) was > 52.2 µM, the GI50 (RXF 393 renal) was 0.687 µM and the TGI (RXF 393 renal) was > 76.1 µM. The GI50 (K-562 leukemia) was 1.72 µM, the TGI (K-562 leukemia) was > 100 µM and the GI50 (A549 NSCLC) was 6.51 µM. For the same compound, the TGI (A549 NSCLC) was > 100 µM, the GI50 (CAKI-1 renal) was 1.89 µM and the TGI (CAKI-1 renal) was > 36.8 µM. For the same compound, the GI50 (NCI-H23 lung) was 5.49 µM, the TGI (NCI-H23 lung) was > 100 µM and the GI50 (HOP-62 NSCLC) was 1.84 µM. The TGI (HOP-62 NSCLC) was > 76.9 µM, the GI50 (NCI/ADR-RES ovarian) was 2.09 µM and the TGI (NCI/ADR-RES ovarian) was > 35.9 µM. The GI50 (SK-OV-3 ovarian) was 2.53 µM, the TGI (SK-OV-3 ovarian) was > 100 µM and the GI50 (BT-549 breast) was 1.12 µM. For the same compound, the TGI (BT-549 breast) was > 100 µM, the GI50 (LOX IMVI melanoma) was 1.88 µM and the TGI (LOX IMVI melanoma) was > 100 µM. For the same compound, the GI50 (SN12C renal) was 3.57 µM, the TGI (SN12C renal) was > 100 µM and the GI50 (MOLT-4 leukemia) was 2.55 µM. For the same compound, the TGI (MOLT-4 leukemia) was > 100 µM, the GI50 (HCC-2998 colon) was 9.4 µM and the TGI (HCC-2998 colon) was > 100 µM. For the same compound, the GI50 (786-0 renal) was 6.39 µM, the TGI (786-0 renal) was > 60.8 µM and the GI50 (HS 578T breast) was 0.556 µM. The TGI (HS 578T breast) was > 100 µM, the GI50 (SNB-75 CNS) was 0.816 µM and the TGI (SNB-75 CNS) was > 100 µM. For the same compound, the GI50 (OVCAR-3 ovarian) was 2.25 µM, the TGI (OVCAR-3 ovarian) was > 100 µM and the GI50 (OVCAR-8 ovarian) was 1.87 µM. The TGI (OVCAR-8 ovarian) was > 100 µM, the GI50 (SF-539 CNS) was 2.7 µM and the TGI (SF-539 CNS) was > 100 µM. For the same compound, the GI50 (NCI-H460 lung) was 0.767 µM, the TGI (NCI-H460 lung) was > 59.3 µM and the GI50 (OVCAR-4 ovarian) was 2.43 µM. For the same compound, the TGI (OVCAR-4 ovarian) was > 100 µM, the GI50 (SK-MEL-28 melanoma) was 6.56 µM and the TGI (SK-MEL-28 melanoma) was > 100 µM. For the same compound, the GI50 (SK-MEL-2 melanoma) was 38.2 µM, the TGI (SK-MEL-2 melanoma) was > 100 µM and the GI50 (UACC-257 melanoma) was 2.25 µM. For the same compound, the TGI (UACC-257 melanoma) was 18.2 µM, the GI50 (SF-295 CNS) was 0.478 µM and the TGI (SF-295 CNS) was > 65.6 µM. The GI50 (KM12 colon) was 5.09 µM, the TGI (KM12 colon) was > 100 µM and the GI50 (EKVX NSCLC) was 2 µM. For the same compound, the TGI (EKVX NSCLC) was > 100 µM, the GI50 (U251 CNS) was 2.65 µM and the TGI (U251 CNS) was > 100 µM. The GI50 (SNB-19 CNS) was 3.98 µM, the TGI (SNB-19 CNS) was > 100 µM and the GI50 (ACHN renal) was 2.08 µM. For the same compound, the TGI (ACHN renal) was > 100 µM, the GI50 (MALME-3M melanoma) was 12.1 µM and the TGI (MALME-3M melanoma) was > 100 µM. For the same compound, the GI50 (A498 renal) was 5.93 µM, the TGI (A498 renal) was > 73.9 µM and the GI50 (MCF7 breast) was 3.38 µM. The TGI (MCF7 breast) was > 100 µM, the GI50 (HL-60(TB) leukemia) was 2.42 µM and the TGI (HL-60(TB) leukemia) was > 100 µM. The GI50 (RPMI-8226 leukemia) was 1.91 µM, the TGI (RPMI-8226 leukemia) was > 85.3 µM and the GI50 (TK-10 renal) was 1.41 µM. For the same compound, the TGI (TK-10 renal) was > 100 µM, the GI50 (HOP-92 NSCLC) was 1.67 µM and the TGI (HOP-92 NSCLC) was > 21.4 µM. For the same compound, the GI50 (PC-3 prostate) was 13.9 µM, the TGI (PC-3 prostate) was > 100 µM and the GI50 (COLO 205 colon) was 2.97 µM. For the same compound, the TGI (COLO 205 colon) was > 44.2 µM, the GI50 (T-47D breast) was 4.01 µM and the TGI (T-47D breast) was > 100 µM. The GI50 (MDA-MB-231 breast) was > 26.3 µM, the TGI (MDA-MB-231 breast) was > 100 µM and the GI50 (UACC-62 melanoma) was 2.12 µM. The TGI (UACC-62 melanoma) was > 71.1 µM, the GI50 (MDA-MB-435) was 3.38 µM and the TGI (MDA-MB-435) was > 100 µM. The GI50 (SW-620 colon) was 4.51 µM, the TGI (SW-620 colon) was > 100 µM and the GI50 (HCT-116 colon) was 1.91 µM. The TGI (HCT-116 colon) was > 100 µM, the GI50 (IGROV1 ovarian) was 0.921 µM and the TGI (IGROV1 ovarian) was > 100 µM.
